Assay results taken from publication PMC9415608, “Design, Synthesis and Biological Investigation of 2-Anilino Triazolopyrimidines as Tubulin Polymerization Inhibitors with Anticancer Activities” (Pharmaceuticals, 2022).
Where two headings read alike, the source gives them in different places. Values belong to the molecule of their own block, whether it stands above or below them.

Columns and labels:
HCT-116 cancer cell line = test system: HCT-116 cancer cell line; parameters: method as in PMID 35196595; settings: read-out: IC50 antiproliferative activity against HCT-116; cited from earlier work
tubulin [1] = test system: tubulin; parameters: method as in PMID 35196595; settings: read-out: IC50 tubulin polymerization inhibitor; cited from earlier work
HeLa = assay: In vitro cell growth inhibition, resazurin viability assay; type: cell-based, human; settings: Homo sapiens; 72 h, resazurin; mean ± SE
Description: (§1) All the cell lines used in this paper were of human origin and purchased from the American Type Culture Collection (ATCC, Manassas, VA, USA). Colon adenocarcinoma (HT-29), non-small cell lung carcinoma (A549), cervix carcinoma (HeLa) and breast adenocarcinoma (MDA-MB-231) cells were grown in RPMI (HT29) or DMEM (A549, HeLa, MDA-MB-231) medium (Gibco, Milano, Italy). Both media were supplemented with 115 units/mL of penicillin G (Gibco, Milano, Italy), 115 μg/mL of streptomycin (Invitrogen, Milano, Italy) and 10% fetal bovine serum (Invitrogen, Milano, Italy). All cell lines were grown at 37 °C in a humidified 5% CO2 atmosphere. The cells were grown in 2 mL of complete medium.
(§2) Stock solutions were prepared for each compound by dissolving in DMSO at the final concentration of 10 mM.
(§3) The cells were seeded in 96-well plates at the appropriate density for each cell line. The respective cell line densities used for the antiproliferative assay were HeLa and HT29 5000 cells/well, A549 4000 cells/well and MDA-MB-231 7000 cells/well. The total volume of medium was 100 µL. After 24 h, the cells were treated by performing serial 5-fold dilutions of the tested compounds starting from a concentration of 10 μM. All experimental conditions were tested in triplicate for statistical analysis. After 72 h of incubation, 10 μL of 100 μg/mL resazurin solution was added to each well and the plate was re-incubated for 3–4 h. The fluorescence of the wells in each plate was monitored using a Spark 10M spectrophotometer (Tecan Group Ltd., Mannedorf, Switzerland) with a 535 nm excitation wavelength and a 600 nm emission wavelength.

MDA-MB-231 = assay: as above; type: cell-based, human; settings: Homo sapiens, MDA-MB-231; 72 h, resazurin; mean ± SE
Description: as §1, §2, §3

HT29 = assay: as above; type: cell-based, human; settings: Homo sapiens, HT-29; 72 h, resazurin; mean ± SE
Description: as §1, §2, §3

A549 = assay: as above; type: cell-based, human; settings: Homo sapiens, A549; 72 h, resazurin; mean ± SE
Description: as §1, §2, §3

Bovine brain tubulin [2] = assay: Inhibition of [3H]colchicine binding to tubulin; settings: tubulin 0.5 µM, [3H]colchicine 5 µM, tested compound 5 µM
Description: (§4) Bovine brain tubulin was purified as described previously. To evaluate the effects of the compounds on tubulin assembly in vitro [80], varying concentrations were preincubated with 10 μM tubulin in 0.8 M monosodium glutamate (pH 6.6) at 30 °C and the reaction mixtures then cooled to 0 °C. After addition of GTP, the mixtures were transferred to 0 °C cuvettes in Beckman Coulter (Brea, CA, USA) DU-7400/DU-7500 recording spectrophotometers equipped with electronic temperature controllers and warmed to 30 °C, and the assembly of tubulin was observed turbidimetrically. […] Inhibition of colchicine binding to tubulin was measured as described before, except that the reaction mixtures contained 0.5 μM tubulin and 5 μM each of [^3H]colchicine and test compound. Only one DEAE-cellulose filter was used per sample, and filtration was by gravity.
(§5) Bovine brain tubulin (see ref. [79] for details of purification) was used to examine effects on tubulin polymerization and colchicine binding. Briefly, in the polymerization experiments, different compound concentrations were preincubated with 10 µM tubulin for 15 min at 30 °C and cooled on ice. After GTP was added to each reaction mixture, the samples were transferred to 0 °C cuvettes in recording spectrophotometers with electronic temperature controllers. The temperature was raised to 30 °C over about 30 s, and turbidity development was followed for 20 min at 350 nm. […] In the current studies, [^3H]colchicine (from American Radiolabeled Corp., St. Louis, MO) binding was measured after 10 min at 37 °C. Reaction mixtures contained 0.5 µM tubulin and 5.0 µM each of the [^3H]colchicine and the potential inhibitor, and a single DEAE-cellulose filter was used for each sample, with gravity filtration.

[3] = test system: MDA-MB-231, HeLa, A549 and HT-29 cancer cell lines; assay: Antiproliferative activity stated across the panel of cancer cell lines; type: cell-based, human; settings: for IC50: Homo sapiens; for fold reduction in antiproliferative activity relative to 3d: range over cell lines
Description: as §1, §2, §3

Bovine brain tubulin [4] = assay: Inhibition of tubulin polymerization (turbidimetric assembly assay); type: biochemical; settings: tubulin at 10 μM, 20 min incubation; read-out: Tubulin Assembly IC50 ± SD
Description: as §4, §5

[5] = test system: panel of four cancer cell lines; settings: read-out: IC50 values, range; cited from earlier work
tubulin [6] = settings: cited from earlier work
HeLa cells = settings: read-out: IC50 antiproliferative activity against HeLa cells; cited from earlier work
cancer cell lines = settings: antiproliferative agent; read-out: IC50, range; cited from earlier work
tubulin [7] = test system: tubulin; parameters: method as in PMID 25025853; settings: read-out: IC50 inhibition of tubulin polymerization; cited from earlier work
[8] = on HeLa, A549 and HT-29 cancer cells, read-out: IC50 values, range

Compound: COc1cc(-c2cc(-c3ccc(Cl)cc3)nc3nc(N)nn23)cc(OC)c1OC [Compound 5]
IC50 (HCT-116 cancer cell line): 530 nM
IC50 (tubulin [1]): 3840 nM

IC50 (HeLa): 0.067 ± 0.0023 µM
IC50 (MDA-MB-231): > 10 µM
IC50 (HT29): 0.16 ± 0.041 µM
IC50 (A549): 0.16 ± 0.045 µM
melting point: 189 to 190 °C
Colchicine Binding % Inhibition ± SD (Bovine brain tubulin [2]): 18 ± 5%
IC50 [3, 8]: 67 to 160 nM
IC50 (Bovine brain tubulin [4]): 800 ± 100 nM
Compound: COc1cc(-c2ccnc3nc(Nc4ccc(C)c(C)c4)nn23)cc(OC)c1OC [Compound 3f, N-(3,4-Dimethylphenyl)-7-(3,4,5-trimethoxyphenyl)-[1,2,4]triazolo[1,5-a]pyrimidin-2-amine]
fold reduction in antiproliferative activity relative to 3d [3]: 2–5 fold

IC50 (HeLa): 0.24 ± 0.074 µM
IC50 (MDA-MB-231): > 10 µM
IC50 (HT29): 0.16 ± 0.033 µM
IC50 (A549): 0.2 ± 0.044 µM
melting point: 199 to 200 °C
Colchicine Binding % Inhibition ± SD (Bovine brain tubulin [2]): 21 ± 0.9%
IC50 [3, 8]: 160 to 240 nM
IC50 (Bovine brain tubulin [4]): 1900 ± 200 nM
Compound: CCc1ccc(Nc2nc3nccc(-c4cc(OC)c(OC)c(OC)c4)n3n2)cc1 [Compound 3h, N-(4-Ethylphenyl)-7-(3,4,5-trimethoxyphenyl)-[1,2,4]triazolo[1,5-a]pyrimidin-2-amine]
fold reduction in antiproliferative activity relative to 3d [3]: 5–7 fold

Compound: COc1ccc(-c2nc3nccc(-c4cc(OC)c(OC)c(OC)c4)n3n2)cc1O [Compound 4]
IC50 [5]: 3000 to 18000 nM
fold greater potency than CA-4, inhibition of tubulin assembly (tubulin [6]): 3 fold
IC50 (HeLa cells): 60 nM

Compound: COc1cc(Nc2cc(C)nc3nc(Nc4ccc(C)cc4)nn23)cc(OC)c1OC [5-methyl-2-(p-toluidino)-7-(3′,4′,5′-trimethoxyanilino)-[1,2,4]triazolo[1,5-a]pyrimidine]
IC50 (cancer cell lines): 520 to 1550 nM

Compound: COc1ccc(/C=C\c2cc(OC)c(OC)c(OC)c2)cc1O [CA-4, combretastatin A-4, reference compound]
IC50 (HeLa): 0.004 ± 0.001 µM
IC50 (MDA-MB-231): 0.005 ± 0.002 µM
Colchicine Binding % Inhibition ± SD (Bovine brain tubulin [2]): 98 ± 2%
IC50 ([3]; against MDA-MB-231 and HeLa cancer cell lines, read-out: IC50, range): 4 to 5 nM

Compound: COc1cc(C(=O)n2nc(Nc3ccc(C)cc3)nc2N)cc(OC)c1OC [Compound 2a]
IC50 (tubulin [7]): 750 nM
